Data set [1] is described as follows: drug interaction studies: co-administered drug in the presence of elagolix.
Protocol: Drug interaction studies were performed with elagolix and other drugs that are likely to be co-administered and with drugs commonly used as probes for pharmacokinetic interactions.
Data set [2] is described as follows: gel formation and pH of elagolix sodium solution. The format is physicochemical. As for the experimental part: 1.23 gram of elagolix sodium was added to 2 mL purified water in a test tube. […] To facilitate continued dissolution, the solution was stirred and the gel was dispersed continuously using a spatula. The solution pH was measured with undissolved solid present using a calibrated pH meter.

[3] abbreviates: 0.35 mg once daily × 112 days, elagolix 150 mg once daily × 56 days, N 32.
[4] abbreviates: Ethinyl estradiol 35 mcg and triphasic norgestimate 0.18/0.215/0.25 mg once daily, elagolix 150 mg once daily, N 21.
Where [5] appears, read: 20 mg once daily, elagolix 300 mg twice daily × 7 days, N 10.
Setting [6] is: 2 mg single dose, elagolix 150 mg once daily × 13 days, N 11.
The mark [7] stands for this setting: 2 mg single dose, elagolix 300 mg twice daily × 11 days, N 20.
The mark [8] stands for this setting: 0.5 mg single dose, elagolix 200 mg twice daily × 10 days, N 11.

Consider `C#C[C@]1(O)CC[C@H]2[C@@H]3CCC4=CC(=O)CC[C@@H]4[C@H]3CC[C@@]21C` [Norethindrone], for which, in data set [1] (setting [3]), the “AUC Ratio (with elagolix vs. medication alone)” value (“AUC Ratio” below) was 0.88 and the “Cmax Ratio (with elagolix vs. medication alone)” value (“Cmax Ratio” for short) is listed as 0.95.
As for `C#CC1(O)CC[C@H]2[C@@H]3CCC4=CC(=O)CC[C@@H]4[C@H]3CC[C@@]21CC` (mixture of isomers) [Norgestrel], in data set [1] (setting [4]), the “AUC Ratio” value was 0.92 and the “Cmax Ratio” value is recorded as 0.89.
For the compound `COc1cccc(-c2c(C)n(Cc3c(F)cccc3C(F)(F)F)c(=O)n(C[C@H](NCCCC(=O)[O-])c3ccccc3)c2=O)c1F.[Na+]` [elagolix sodium, sodium 4-((R)-2-[5-(2-fluoro-3-methoxy-phenyl)-3-(2-fluoro-6-trifluoromethyl-benzyl)-4-methyl-2,6-dioxo-3,6-dihydro-2H-pyrimidin-1-yl]-1-phenyl-ethylamino)butanoate], in data set [2] (1.23 gram added to 2 mL purified water), the “gel formation during dissolution” value is listed as “started to form gel”. Further, the “pH value of the solution” value in data set [2] (1.23 gram in 2 mL purified water, undissolved solid present, 20° C.) came out at 9.80.
Turning to `CC(C)c1nc(N(C)S(C)(=O)=O)nc(-c2ccc(F)cc2)c1/C=C/[C@@H](O)C[C@@H](O)CC(=O)O` [Rosuvastatin], in data set [1] (setting [5]), the “AUC Ratio” value amounted to 0.60 and the “Cmax Ratio” value came to 0.99.
For `Cc1ncc2n1-c1ccc(Cl)cc1C(c1ccccc1F)=NC2` [Midazolam], the “AUC Ratio” value came out at 0.65 in data set [1] (setting [6]) and 0.46 in data set [1] (setting [7]). Moreover, the “Cmax Ratio” value in data set [1] (setting [6]) came out at 0.81; in data set [1] (setting [7]) it was 0.56.
For the compound `C[C@H]1O[C@@H](O[C@H]2[C@@H](O)C[C@H](O[C@H]3[C@@H](O)C[C@H](O[C@H]4CC[C@@]5(C)[C@H](CC[C@@H]6[C@@H]5C[C@@H](O)[C@]5(C)[C@@H](C7=CC(=O)OC7)CC[C@]65O)C4)O[C@@H]3C)O[C@@H]2C)C[C@H](O)[C@@H]1O` [Digoxin], in data set [1] (setting [8]), the “AUC Ratio” value was 1.26 and the “Cmax Ratio” value amounted to 1.71.
With `C#C[C@]1(O)CC[C@H]2[C@@H]3CCc4cc(O)ccc4[C@H]3CC[C@@]21C` [Ethinyl Estradiol], in data set [1] (setting [4]), the “AUC Ratio” value is listed as 1.30 and the “Cmax Ratio” value was 1.15.
On the same counts, the results for `C#C[C@]1(O)CC[C@H]2[C@@H]3CCC4=CC(=NO)CC[C@@H]4[C@H]3CC[C@@]21CC` (mixture of isomers) [Norelgestromin] are 0.85 and 0.87.

Source of the values: patent publication US12083227B2, “Solid pharmaceutical formulations for treating endometriosis, uterine fibroids, polycystic ovary syndrome or adenomyosis” (priority 2017, dated 2024).
